Source: patent US20260109690A1, “HDAC6 INHIBITORS AND METHOD OF THEIR USE” (Baerenkraft Therapeutics, LLC., priority 2024, published 2026)
Several values for one entry are separate records, joined by “and”; a condition that tells them apart may be missing. Identical values can stand only once. One block for each compound: values may come before it.

Legend:
HDAC6 [1] = target: T1, HDAC6 (Homo sapiens, UniProt Q9UBN7); assay: Biochemical HDAC6 inhibitory activity assay
T1 sequence (Q9UBN7 1-1215): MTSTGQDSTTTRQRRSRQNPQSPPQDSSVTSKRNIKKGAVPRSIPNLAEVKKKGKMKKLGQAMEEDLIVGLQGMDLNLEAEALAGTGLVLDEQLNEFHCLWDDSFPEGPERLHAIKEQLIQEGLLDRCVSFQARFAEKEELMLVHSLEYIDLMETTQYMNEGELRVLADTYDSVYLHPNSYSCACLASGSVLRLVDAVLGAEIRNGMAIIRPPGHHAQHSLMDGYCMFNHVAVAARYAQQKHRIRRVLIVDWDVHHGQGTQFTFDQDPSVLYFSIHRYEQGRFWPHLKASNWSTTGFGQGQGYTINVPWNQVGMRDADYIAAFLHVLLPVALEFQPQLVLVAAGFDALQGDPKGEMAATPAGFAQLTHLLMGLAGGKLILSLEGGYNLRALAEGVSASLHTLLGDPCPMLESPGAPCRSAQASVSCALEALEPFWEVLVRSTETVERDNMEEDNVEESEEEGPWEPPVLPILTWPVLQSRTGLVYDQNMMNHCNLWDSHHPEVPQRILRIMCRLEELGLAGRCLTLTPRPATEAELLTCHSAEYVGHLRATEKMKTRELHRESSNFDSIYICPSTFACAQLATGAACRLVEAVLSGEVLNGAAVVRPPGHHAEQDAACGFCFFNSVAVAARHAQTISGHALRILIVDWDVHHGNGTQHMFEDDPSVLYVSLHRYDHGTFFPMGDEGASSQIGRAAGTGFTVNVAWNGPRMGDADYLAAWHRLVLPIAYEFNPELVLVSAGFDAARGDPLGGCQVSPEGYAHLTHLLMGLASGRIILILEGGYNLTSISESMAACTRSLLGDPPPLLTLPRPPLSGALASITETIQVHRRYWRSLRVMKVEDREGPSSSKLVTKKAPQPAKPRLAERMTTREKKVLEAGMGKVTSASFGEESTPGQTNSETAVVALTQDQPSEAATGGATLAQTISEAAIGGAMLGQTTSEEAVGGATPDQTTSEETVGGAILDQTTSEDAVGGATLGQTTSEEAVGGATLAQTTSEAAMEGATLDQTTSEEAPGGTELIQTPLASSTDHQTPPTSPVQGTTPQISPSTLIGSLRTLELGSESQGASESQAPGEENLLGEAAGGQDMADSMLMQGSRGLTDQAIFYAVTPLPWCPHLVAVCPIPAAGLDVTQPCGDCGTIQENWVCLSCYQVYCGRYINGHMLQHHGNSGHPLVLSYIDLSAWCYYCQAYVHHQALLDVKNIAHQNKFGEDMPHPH

[2] = ALS mouse model: body weight; assay type: in vivo; settings: SOD1-G93A mice, in g (unit assumed)
Method: Mice were weighed and randomized into different groups and age matched control groups were kept as such. Test compound I-8 was freshly formulated and administered to the respective animals of each group as per body weight. Animals in G1 and G2 were administered with vehicle. G3 and G4 group animals were dosed with compound I-8 at the dose of 15 mg/kg and 30 mg/kg respectively, per orally; Q.D. G4 animals were administered 30 mg/kg dose until day 34 and 50 mg/kg from day 35 onwards.
The body weight of each animal was recorded at the time of randomization and once in 2 days during the study period.

HDAC6 [3] = target: T1, HDAC6; assay: NanoBRET assay for target engagement in HEK293 cells transiently transfected with HDAC6; assay type: cell-based; settings: HEK293 cells transfected with HDAC6-NanoLuc Fusion vector, 1 hour
Tg2576 AD Disease Mice [4] = assay: Tg2576 study: open field test; assay type: in vivo; settings: for Open Field Test time spent in Central zone / Open Field Test time spent in Peripheral zone: G3 Tg2576 mice
Method: (§1) Mice were weighed and randomized into groups. All the test formulations were freshly administered to respective animals of each group as per body weight. Basal behavior of the animals was recorded and analyzed in open field, Y-Maze, and EPM. Post basal behavior, animals were treated with compound I-16 for the duration of 3 months (i.e., from 6 months until 9 months). During the treatment duration, animals were subjected to different behavioral tests such as OFT, Y-maze, and EPM at 7, 8 and 9 months. At the end of experiments (i.e., at 9 months) animals were subjected to Morris water maze test.
Prior to the treatment initiation at […], animals were subjected to open field test. […] The total distance travelled, and velocity were quantified using an automated video tracking software Ethovision XT for the duration of 10 minutes. A camera, located directly above the centre of the open field, records the session. Locomotor activities were expressed as the total distance travelled and velocity.

Tg2576 AD Disease Mice [5] = assay: Tg2576 study: Morris water maze test; assay type: in vivo; settings: G3 Tg2576 mice, 50 mg/kg then 80 mg/kg from day 36 p.o.; 9th month, probe test
Method: as §1
Animals were subjected to MWM to test spatial working memory. Animals were subjected to habituation, acquisition, and probe trial phase. On day 0, animals were habituated to the Morris water maze tank filled with water for a duration of 90 seconds. During the acquisition phase from day 1 to 4, animals were allowed to swim or search the hidden platform for a duration of 60 seconds. Animals were subjected to a total of 4 trials from 4 different positions each day. On the day of the probe test, animals were allowed to swim for a duration of 60 seconds without platform and time spent in the target quadrant was recorded. During the acquisition phase, latency to reach the platform was calculated.

[6] = 50 mg/kg then 80 mg/kg from day 36 p.o., 8th months
[7] = 50 mg/kg then 80 mg/kg from day 36 p.o., 9th months
[8] = 6th months (Basal, before treatment)

SMILES: CC1CN(Cc2ccc(Nc3nccc(-c4ccc(C(=O)NO)cc4)n3)cc2F)CCO1 (racemic) [Compound I-8, 4-(2-((3-fluoro-4-((2-methylmorpholino)methyl)phenyl)amino)pyrimidin-4-yl)-N-hydroxybenzamide]
IC50 (HDAC6 [1]; 10-dose IC50 mode, in singlet, 3-fold serial dilution, test compound starting at 100 millimolar, read-out: HDAC6 IC50): 7.32 nM | EC50 (HDAC6 [1]; 10-dose in vitro test (FIG. 1)): 7.32 nM | selectivity for HDAC6 compared to other HDACs (HDAC6 [1]; against 11 HDACs): marked selectivity for HDAC6 | IC50 (HDAC6 [1]; read-out: HDAC6 IC50): < 1000 nM | Body weight ([2]; G3 15 mg/kg p.o. QD, Day 1): 25.99 ± 0.73 | Body weight ([2]; G3 15 mg/kg p.o. QD, Day 7): 25.97 ± 0.70 | Body weight ([2]; G3 15 mg/kg p.o. QD, Day 13): 26.54 ± 0.52 | Body weight ([2]; G3 15 mg/kg p.o. QD, Day 21): 26.81 ± 0.45 | Body weight ([2]; G3 15 mg/kg p.o. QD, Day 27): 26.51 ± 0.46 | Body weight ([2]; G3 15 mg/kg p.o. QD, Day 35): 26.76 ± 0.43 | Body weight ([2]; G3 15 mg/kg p.o. QD, Day 43): 26.60 ± 0.50 | Body weight ([2]; G3 15 mg/kg p.o. QD, Day 49): 25.47 ± 0.62 | Body weight ([2]; G3 15 mg/kg p.o. QD, Day 52): 24.52 ± 0.68 | Body weight ([2]; G4 30 mg/kg (50 mg/kg from day 34) p.o. QD, Day 1): 25.66 ± 0.48 | Body weight ([2]; G4 30 mg/kg (50 mg/kg from day 34) p.o. QD, Day 7): 25.64 ± 0.40 | Body weight ([2]; G4 30 mg/kg (50 mg/kg from day 34) p.o. QD, Day 13): 26.14 ± 0.52 | Body weight ([2]; G4 30 mg/kg (50 mg/kg from day 34) p.o. QD, Day 21): 27.53 ± 0.60 | Body weight ([2]; G4 30 mg/kg (50 mg/kg from day 34) p.o. QD, Day 27): 27.29 ± 0.52 | Body weight ([2]; G4 30 mg/kg (50 mg/kg from day 34) p.o. QD, Day 35): 26.55 ± 0.57 | Body weight ([2]; G4 30 mg/kg (50 mg/kg from day 34) p.o. QD, Day 43): 26.04 ± 0.60 | Body weight ([2]; G4 30 mg/kg (50 mg/kg from day 34) p.o. QD, Day 49): 24.30 ± 0.96 | Body weight ([2]; G4 30 mg/kg (50 mg/kg from day 34) p.o. QD, Day 52 (n = 6-8)): 24.75 ± 0.45 | IC50 (HDAC6 [3]): 34.7 nM and 35 nM

IC50 (HDAC6 [1]; read-out: HDAC6 IC50): < 1000 nM | IC50 (HDAC6 [1]; unit inferred, read-out: IC50 against HDAC6 (FIG. 3)): 12.4 nM
SMILES: C[C@@H]1CN(Cc2ccc(Nc3nccc(-c4ccc(C(=O)NO)cc4)n3)cc2F)CCO1 [Compound I-16, (R)-4-(2-((3-fluoro-4-((2-methylmorpholino)methyl)phenyl)amino)pyrimidin-4-yl)-N-hydroxybenzamide]
Open Field Test: total distance, velocity, time spent in central and peripheral zone compared to G2 (Tg2576 + vehicle) (Tg2576 AD Disease Mice [4]; G3 Tg2576 AD disease mice, 50 mg/kg): did not show any significant difference | Open Field Test time spent in Central zone (Tg2576 AD Disease Mice [4]; 50 mg/kg p.o., 7th months): 25.12 ± 12.39 | Open Field Test time spent in Peripheral zone (Tg2576 AD Disease Mice [4]; 50 mg/kg p.o., 7th months): 574.88 ± 12.39 | Open Field Test time spent in Central zone (Tg2576 AD Disease Mice [4]; [6]): 79.09 ± 28.86 | Open Field Test time spent in Peripheral zone (Tg2576 AD Disease Mice [4]; [6]): 520.91 ± 28.86 | Open Field Test time spent in Central zone (Tg2576 AD Disease Mice [4]; [7]): 61.69 ± 12.36 | Open Field Test time spent in Peripheral zone (Tg2576 AD Disease Mice [4]; [7]): 538.31 ± 12.36 | Open Field Test time spent in Central zone (Tg2576 AD Disease Mice [4]; [8]): 57.11 ± 12.95 | Open Field Test time spent in Peripheral zone (Tg2576 AD Disease Mice [4]; [8]): 537.81 ± 12.63 | Morris Water Maze time spent in NW (Target Quadrant) (Tg2576 AD Disease Mice [5]): 15.49 ± 1.80 s
